Measurements reported in PMC11845477, “Exploring the principles behind antibiotics with limited resistance” (Nature Communications, 2025).
Like-named read-outs stand apart in the source and are kept apart here.

How the values were obtained:
[1] = test system: K. pneumoniae ATCC 10031 (SEN) and K. pneumoniae ATCC 700603 (MDR); test: Frequency-of-resistance (FoR) assay, relative MIC of mutants; type: cell-based, Klebsiella pneumoniae; settings: for MIC: Klebsiella pneumoniae
Method: (§1) The susceptibility of antibiotics to resistance development was evaluated in two strains of each bacterial species: a multidrug-resistant strain and an antibiotic-sensitive strain of Escherichia coli, Klebsiella pneumoniae, Acinetobacter baumannii, and Pseudomonas aeruginosa. To explore first-step resistance, we previously used a standard protocol for spontaneous frequency-of-resistance analysis (FoR assay) at multiple concentrations of each antibiotic[10],[28],[31]–[33]. […] For all other combinations, approximately 10^10 bacterial cells were exposed to one of each antibiotic on agar plates for two days at concentrations where the given strain is susceptible. We examined resistance levels by contrasting the minimum inhibitory concentration (MICs) of the mutated strains to the original wild-type bacterial strain (i.e., relative MIC).
(§2) To estimate the frequency of spontaneous mutations that confer resistance in a microbial population, we conducted a frequency of resistance (FoR) assay following established protocols[10],[31]–[33]. […] Prior to plating, bacteria were grown overnight in MHB medium at 37 °C and 250 RPM, then centrifuged and washed in MHB. All experiments were performed in triplicate, and plates were incubated at 37 °C for 48 hours. Total colony-forming units (CFUs) were determined by plating appropriate dilutions onto antibiotic-free MHB agar. Resistance frequencies were calculated by dividing the number of resistant colonies by the initial viable cell count. From the plates with the highest antibiotic concentration, ten colonies were selected for MIC determination and whole-genome sequencing.
(§3) A robotic liquid handling system was used to automatically prepare a 11 to 16-step serial dilution in 384-well microtiter plates (Greiner). A final concentration of 5 × 10^5 bacterial cells per mL were inoculated into each well containing 60 µL MHB medium. Bacterial cultures were incubated at 37 °C with continuous shaking (Infors shaker, 900 rpm with 3 mm throw) for 18 hours (2 replicates from each). Cell growth was monitored by measuring the optical density (OD600 values, using Biotek Synergy microplate reader). MIC was defined as the antibiotic concentration of complete growth inhibition (i.e., OD600 < 0.05). Relative MIC was calculated as follows:1 relativeMIC=MICevolved/MICancestor […]
(§4) Supplementary Figure 3. Resistance levels following the frequency of resistance assay across bacterial strains. The level of resistance was measured as the fold change in relative MIC between evolved and ancestral strains. Data are grouped by bacterial strain (A. baumannii (AB), E. coli (EC), K. pneumoniae (KP), and P. aeruginosa (PA)) and categorized as either multidrug-resistant (MDR) or sensitive (SEN). Each data point represents a laboratory evolved line, and boxplots show the median, first and third quartiles, with whiskers indicating the 5th and 95th percentiles. […]
(§5) analysis was performed using two-sided Dunn’s post-hoc test with Benjamini-Hochberg correction for multiple comparisons (**/ * indicates p < 0.01/ 0.05). For detailed information on antibiotic and bacterial species, see Supplementary Table 1. For mode of action groups, refer to Table 1. Source data are provided as a Source Data file.

[2] = test system: E. coli ATCC 25922 (SEN) and E. coli NCTC13846 (MDR); test: as above; type: cell-based, Escherichia coli; settings: for MIC: Escherichia coli
Method: as §1, §2, §3, §4, §5

[3] = test system: A. baumannii ATCC 17978 (SEN) and A. baumannii ATCC BAA-1605 (MDR); test: Adaptive laboratory evolution (ALE), relative MIC of evolved lines; type: cell-based, Acinetobacter baumannii
Text: Using the same set of bacterial strains, we initiated adaptive laboratory evolution with the aim to maximize the level of antibiotic resistance in the populations achieved during a longer, but fixed time period.
An established protocol for adaptive laboratory evolution[46],[73] was followed to propagate populations with the highest resistance levels. Starting with an antibiotic concentration that caused approximately 50% growth inhibition, ten parallel populations for each antibiotic-ancestor strain combination were grown for 72 hours at 37 °C with continuous shaking (300 RPM). MHB broth medium was used unless stated otherwise. After each incubation, 20 µl of each culture was transferred to four new wells containing fresh medium with increasing antibiotic concentrations (0.5×, 1×, 1.5×, and 2.5× the previous concentration) in a chessboard layout to monitor potential cross-contamination. Growth was monitored by measuring OD600 using a Biotek Synergy 2 microplate reader, and only populations grown in the highest drug concentration with an OD600 > 0.2 were transferred further.
as §3
Supplementary Figure 4. Resistance levels following adaptive laboratory evolution across bacterial strains. The level of resistance was measured as the fold change in relative MIC between evolved and ancestral strains after ~60 days of adaptive laboratory evolution. Data are grouped by bacterial strain (A. baumannii (AB), E. coli (EC), K. pneumoniae (KP), and P. aeruginosa (PA)) and categorized as either multidrug-resistant (MDR) or sensitive (SEN). Each data point represents a laboratory evolved line, and boxplots show the median, first and third quartiles, with whiskers indicating the 5th and 95th percentiles.
as §5, with “Statistical analysis” for “analysis”, “(****/ ***/ **/” for “(**/”, “< 0.0001/ 0.001/” for “<”

CN(C)[C@@H]1C(O)=C(C(N)=O)C(=O)[C@@]2(O)C(O)=C3C(=O)c4c(O)c(NC(=O)CN5CCCC5)cc(F)c4C[C@H]3C[C@@H]12 [Eravacycline]
Relative MIC ([1]; Klebsiella pneumoniae ATCC 10031 (KP-SEN), evolved line 1 versus ancestor): 16
Relative MIC ([1]; Klebsiella pneumoniae ATCC 10031 (KP-SEN), evolved line 2 versus ancestor): 16
Relative MIC ([1]; Klebsiella pneumoniae ATCC 10031 (KP-SEN), evolved line 3 versus ancestor): 16
Relative MIC ([1]; Klebsiella pneumoniae ATCC 700603 (KP-MDR), evolved line 1 versus ancestor): 8
Relative MIC ([1]; Klebsiella pneumoniae ATCC 700603 (KP-MDR), evolved line 2 versus ancestor): 8
Relative MIC ([1]; Klebsiella pneumoniae ATCC 700603 (KP-MDR), evolved line 3 versus ancestor): 8
MIC ([1]; read-out: MIC of evolved line, Klebsiella pneumoniae ATCC 10031 (KP-SEN), evolved line 1): 0.5 µg/mL
MIC ([1]; read-out: MIC of evolved line, Klebsiella pneumoniae ATCC 10031 (KP-SEN), evolved line 2): 0.5 µg/mL
MIC ([1]; read-out: MIC of evolved line, Klebsiella pneumoniae ATCC 10031 (KP-SEN), evolved line 3): 0.5 µg/mL
MIC ([1]; read-out: MIC of evolved line, Klebsiella pneumoniae ATCC 700603 (KP-MDR), evolved line 1): 32 µg/mL
MIC ([1]; read-out: MIC of evolved line, Klebsiella pneumoniae ATCC 700603 (KP-MDR), evolved line 2): 32 µg/mL
MIC ([1]; read-out: MIC of evolved line, Klebsiella pneumoniae ATCC 700603 (KP-MDR), evolved line 3): 32 µg/mL
Relative MIC ([2]; E. coli NCTC 13846 (EC-MDR), evolved line 1, evolved vs ancestor): 2
Relative MIC ([2]; E. coli NCTC 13846 (EC-MDR), evolved line 2, evolved vs ancestor): 1
Relative MIC ([2]; E. coli NCTC 13846 (EC-MDR), evolved line 3, evolved vs ancestor): 2
Relative MIC ([2]; Escherichia coli ATCC 25922 (EC-SEN), evolved line 1 versus ancestor): 2
Relative MIC ([2]; Escherichia coli ATCC 25922 (EC-SEN), evolved line 2 versus ancestor): 1
Relative MIC ([2]; Escherichia coli ATCC 25922 (EC-SEN), evolved line 3 versus ancestor): 2
MIC ([2]; read-out: MIC of evolved line, E. coli NCTC 13846 (EC-MDR), evolved line 1): 2 µg/mL
MIC ([2]; read-out: MIC of evolved line, E. coli NCTC 13846 (EC-MDR), evolved line 3): 2 µg/mL
MIC ([2]; read-out: MIC of evolved line, Escherichia coli ATCC 25922 (EC-SEN), evolved line 1): 0.25 µg/mL
MIC ([2]; read-out: MIC of evolved line, Escherichia coli ATCC 25922 (EC-SEN), evolved line 2): 0.125 µg/mL
MIC ([2]; read-out: MIC of evolved line, Escherichia coli ATCC 25922 (EC-SEN), evolved line 3): 0.25 µg/mL
Relative MIC ([3]; AB-MDR (ATCC BAA 1605), evolved line 1, MIC of evolved line / MIC of ancestor): 16
Relative MIC ([3]; AB-MDR (ATCC BAA 1605), evolved line 2, MIC of evolved line / MIC of ancestor): 32
Relative MIC ([3]; AB-MDR (ATCC BAA 1605), evolved line 3, MIC of evolved line / MIC of ancestor): 32
Relative MIC ([3]; AB-MDR (ATCC BAA 1605), evolved line 4, MIC of evolved line / MIC of ancestor): 32
Relative MIC ([3]; AB-MDR (ATCC BAA 1605), evolved line 5, MIC of evolved line / MIC of ancestor): 16
Relative MIC ([3]; AB-MDR (ATCC BAA 1605), evolved line 6, MIC of evolved line / MIC of ancestor): 32
Relative MIC ([3]; AB-MDR (ATCC BAA 1605), evolved line 7, MIC of evolved line / MIC of ancestor): 32
Relative MIC ([3]; AB-MDR (ATCC BAA 1605), evolved line 8, MIC of evolved line / MIC of ancestor): 32
Relative MIC ([3]; AB-MDR (ATCC BAA 1605), evolved line 9, MIC of evolved line / MIC of ancestor): 32
Relative MIC ([3]; AB-MDR (ATCC BAA 1605), evolved line 10, MIC of evolved line / MIC of ancestor): 32
Relative MIC (log10) ([3]; AB-MDR (Acinetobacter baumannii ATCC BAA 1605), evolved line 2 adapted to the named antibiotic): 1.505
Relative MIC (log10) ([3]; AB-MDR (Acinetobacter baumannii ATCC BAA 1605), evolved line 3 adapted to the named antibiotic): 1.505
Relative MIC (log10) ([3]; AB-MDR (Acinetobacter baumannii ATCC BAA 1605), evolved line 4 adapted to the named antibiotic): 1.505
Relative MIC (log10) ([3]; AB-MDR (Acinetobacter baumannii ATCC BAA 1605), evolved line 6 adapted to the named antibiotic): 1.505
Relative MIC (log10) ([3]; AB-MDR (Acinetobacter baumannii ATCC BAA 1605), evolved line 10 adapted to the named antibiotic): 1.505
Relative MIC ([3]; AB-SEN (ATCC 17978), evolved line 1, MIC of evolved line / MIC of ancestor): 64
Relative MIC ([3]; AB-SEN (ATCC 17978), evolved line 2, MIC of evolved line / MIC of ancestor): 128
Relative MIC ([3]; AB-SEN (ATCC 17978), evolved line 3, MIC of evolved line / MIC of ancestor): 128
Relative MIC ([3]; AB-SEN (ATCC 17978), evolved line 4, MIC of evolved line / MIC of ancestor): 128
Relative MIC ([3]; AB-SEN (ATCC 17978), evolved line 5, MIC of evolved line / MIC of ancestor): 128
Relative MIC ([3]; AB-SEN (ATCC 17978), evolved line 6, MIC of evolved line / MIC of ancestor): 128
Relative MIC ([3]; AB-SEN (ATCC 17978), evolved line 7, MIC of evolved line / MIC of ancestor): 128
Relative MIC ([3]; AB-SEN (ATCC 17978), evolved line 8, MIC of evolved line / MIC of ancestor): 64
Relative MIC ([3]; AB-SEN (ATCC 17978), evolved line 9, MIC of evolved line / MIC of ancestor): 128
Relative MIC ([3]; AB-SEN (ATCC 17978), evolved line 10, MIC of evolved line / MIC of ancestor): 128
Relative MIC (log10) ([3]; AB-SEN (Acinetobacter baumannii ATCC 17978), evolved line 2 adapted to the named antibiotic): 2.107
Relative MIC (log10) ([3]; AB-SEN (Acinetobacter baumannii ATCC 17978), evolved line 4 adapted to the named antibiotic): 2.107
Relative MIC (log10) ([3]; AB-SEN (Acinetobacter baumannii ATCC 17978), evolved line 6 adapted to the named antibiotic): 2.107
Relative MIC (log10) ([3]; AB-SEN (Acinetobacter baumannii ATCC 17978), evolved line 8 adapted to the named antibiotic): 1.806
Relative MIC (log10) ([3]; AB-SEN (Acinetobacter baumannii ATCC 17978), evolved line 9 adapted to the named antibiotic): 2.107
Relative MIC ([3]; Acinetobacter baumannii ATCC 17978 (AB-SEN), evolved line 1): 64
Relative MIC ([3]; Acinetobacter baumannii ATCC 17978 (AB-SEN), evolved line 2): 128
Relative MIC ([3]; Acinetobacter baumannii ATCC 17978 (AB-SEN), evolved line 3): 128
Relative MIC ([3]; Acinetobacter baumannii ATCC 17978 (AB-SEN), evolved line 4): 128
Relative MIC ([3]; Acinetobacter baumannii ATCC 17978 (AB-SEN), evolved line 5): 128
Relative MIC ([3]; Acinetobacter baumannii ATCC 17978 (AB-SEN), evolved line 6): 128
Relative MIC ([3]; Acinetobacter baumannii ATCC 17978 (AB-SEN), evolved line 7): 128
Relative MIC ([3]; Acinetobacter baumannii ATCC 17978 (AB-SEN), evolved line 8): 64
Relative MIC ([3]; Acinetobacter baumannii ATCC 17978 (AB-SEN), evolved line 9): 128
Relative MIC ([3]; Acinetobacter baumannii ATCC 17978 (AB-SEN), evolved line 10): 128
Relative MIC ([3]; Acinetobacter baumannii ATCC BAA 1605 (AB-MDR), evolved line 2): 32
Relative MIC ([3]; Acinetobacter baumannii ATCC BAA 1605 (AB-MDR), evolved line 4): 32
Relative MIC ([3]; Acinetobacter baumannii ATCC BAA 1605 (AB-MDR), evolved line 5): 16
Relative MIC ([3]; Acinetobacter baumannii ATCC BAA 1605 (AB-MDR), evolved line 6): 32
Relative MIC ([3]; Acinetobacter baumannii ATCC BAA 1605 (AB-MDR), evolved line 7): 32
Relative MIC ([3]; Acinetobacter baumannii ATCC BAA 1605 (AB-MDR), evolved line 8): 32
Relative MIC ([3]; Acinetobacter baumannii ATCC BAA 1605 (AB-MDR), evolved line 9): 32
Relative MIC ([3]; Acinetobacter baumannii ATCC BAA 1605 (AB-MDR), evolved line 10): 32
Relative MIC ([3]; Acinetobacter baumannii ATCC BAA 1605 (AB-MDR), evolved line 1): 16
Relative MIC ([3]; Acinetobacter baumannii ATCC BAA 1605 (AB-MDR), evolved line 3): 32
